We go through nine molecules from patent US6982348B2, “Aminoethanol derivatives” (Takeda Pharmaceutical Company Limited, priority 2001, dated 2006).

For `O=C(NCc1ccccc1)c1ccc([C@H](O)[C@@H](Cc2cccc(OC(F)(F)C(F)F)c2)NC(=O)c2cccc3c2C=CCCC3)cc1` (racemic) [Example 316, N-[(1RS,2SR)-2-[4-[(benzylamino)carbonyl]phenyl]-2-hydroxy-1-[3-(1,1,2,2-tetrafluoroethoxy)benzyl]ethyl]-6,7-dihydro-5H-benzo[a]cycloheptene-1-carboxamide], the melting point was in the range of 216 to 217 °C.

`O=C(N[C@H](Cc1cccc(OC(F)(F)C(F)F)c1)[C@@H](O)c1cccc(Cl)c1)c1cccc2c1C=CCCC2` (racemic) [Example 237, N-{(1RS,2SR)-2-(3-chlorophenyl)-2-hydroxy-1-[3-(1,1,2,2-tetrafluoroethoxy)benzyl]ethyl}-6,7-dihydro-5H-benzo[a][7]annulene-1-carboxamide] yielded a melting point of 160 to 161 °C.

Molecule `CC(C)(C)OC(=O)N[C@H](Cc1ccc(C#N)cc1)[C@@H](O)c1ccc(F)cc1` (racemic) [Example 152, tert-butyl N-[(1RS,2SR)-1-(4-cyanobenzyl)-2-(4-fluorophenyl)-2-hydroxyethyl]carbamate] yielded a melting point of 203 to 204 °C.

`O=C(N[C@H](Cc1cccc(OC(F)(F)C(F)F)c1)[C@@H](O)c1ccc(-c2cccc(CO)c2)cc1)c1cccc2c1C=CCCC2` (racemic) [Example 303, N-[(1RS,2SR)-2-[3′-(hydroxymethyl)[1,1′-biphenyl]-4-yl]-2-hydroxy-1-[3-(1,1,2,2-tetrafluoroethoxy)benzyl]ethyl]-6,7-dihydro-5H-benzo[a]cycloheptene-1-carboxamide] returned a melting point of 178 to 179 °C.

Molecule `Cc1ccc(C[C@@H](NC(=O)c2cccc3c2C=CCCC3)[C@@H](O)c2ccc(F)cc2)cc1OC(F)(F)C(F)F` (racemic) [Example 234, N-((1RS,2SR)-2-(4-fluorophenyl)-2-hydroxy-1-((4-methyl-3-((1,1,2,2-tetrafluoroethyl)oxy)phenyl)methyl)ethyl)-6,7-dihydro-5H-benzo[a]cycloheptene-1-carboxamide] showed a melting point of 168 to 169 °C.

Take `O=C(N[C@H](Cc1ccc(C(F)(F)F)cc1)[C@@H](O)c1ccc(F)cc1)c1cccc2c1OCCCO2` (racemic) [Example 113, N-[(1RS,2SR)-2-(4-fluorophenyl)-2-hydroxy-1-[4-(trifluoromethyl)benzyl]ethyl]-3,4-dihydro-2H-1,5-benzodioxepine-6-carboxamide]: the melting point was in the range of 155 to 156 °C.

Molecule `O=C(N[C@H](Cc1ccc(C(F)(F)F)cc1)[C@@H](O)c1ccc(F)cc1)c1cc([N+](=O)[O-])cc2c1CCCC2` (racemic) [Example 111, N-[(1RS,2SR)-2-(4-fluorophenyl)-2-hydroxy-1-[4-(trifluoromethyl)benzyl]ethyl]-3-nitro-5,6,7,8-tetrahydronaphthalene-1-carboxamide] had a melting point of 216 to 217 °C.

In turn, `CCCCOc1ccc([C@H](O)[C@@H](Cc2cccc(OC(F)(F)C(F)F)c2)NC(=O)c2cccc3c2C=CCCC3)cc1` (racemic) [Example 244, N-{(1RS,2SR)-2-(4-butoxyphenyl)-2-hydroxy-1-[3-(1,1,2,2-tetrafluoroethoxy)benzyl]ethyl}-6,7-dihydro-5H-benzo[a][7]annulene-1-carboxamide] had a melting point of 126 to 127 °C.

On to `N#CC(c1ccc([C@H](O)[C@@H](Cc2cccc(OC(F)(F)C(F)F)c2)NC(=O)c2cccc3c2C=CCCC3)cc1)N1CCCCC1` (mixture of isomers) [Example 327, N-[(1RS,2SR)-2-[4-[cyano(piperidino)methyl]phenyl]-2-hydroxy-1-[3-(1,1,2,2-tetrafluoroethoxy)benzyl]ethyl]-6,7-dihydro-5H-benzo[a]cycloheptene-1-carboxamide], for which the melting point was in the range of 152 to 154 °C.
